Measured values from US10016515B2, “DMA, a bis-benzimidazole, confers radioprotection to the intestine via Akt/NFκB dual pathway activation” (Jawaharlal Nehru University, priority 2016, dated 2018).
Like-named read-outs stand apart in the source and are kept apart here.

Columns and labels:
[1] = tested on: Balb/c mice spleen; assay: Endogenous spleen colony forming assay; assay type: in vivo, mouse
Description: Group 1, sham control (normal saline treated); Group 2, DMA treated (200 mg/kg bw); Group 3, radiation control (whole body exposure to 8Gy); Group 4, treated with DMA (200 mg/kg bw) prior to whole body exposure to 8Gy. Mice (6 animals each) were irradiated, 2 h post-administration of DMA. The mice were sacrificed on day 10 and spleens were removed, blotted free of blood, weighed and the spleen index was calculated [spleen index=(spleen weight/body weight)×100]. Subsequently spleens were fixed in Bouin's fixative for 15 min and the number of macroscopic spleen cell colonies was counted manually.

[2] = tested on: Balb/c mice; assay type: in vivo
Description: Balb/c mice with or without DMA treatment were placed in a specially designed, well-ventilated acrylic container and subjected to whole-body irradiation at 5, 6, 8, 9 or 10 Gray (Gy) in a single fraction.
The mice were grouped as follows: Group 1, Sham control (normal saline treated); Group 2, radiation control (whole body exposure to 8 Gy); Group 3, treated with increasing doses (100, 150, 200, 450 and 600 mg/kg bw) of DMA 2 h prior to whole body exposure to 8 Gy and Group 4 treated with similar DMA doses only. Survival study was carried out for a period of 30 days and animals were routinely monitored for their body weight, food and water intake, radiation sickness symptoms and mortality to fix the highest effective dose of DMA against radiation induced toxicity.
Mice were treated with DMA (200 mg/kg bw) prior to whole body exposure to 5, 6, 8, 9 & 10 Gy. DRF was calculated ratio of LD50/30 mice treated with both DMA and radiation to the LD50/30 of mice treated with saline and radiation. Similarly survival with different route of administration of DMA was studied at 8 and 9 Gy TBI.

[3] = tested on: Balb/c mice spleen and small intestine; assay: BrdU and IL6 immunohistochemistry; assay type: in vivo, mouse
Description: Spleen cell survival was determined 3 days after irradiation by 5-bromo-2′-deoxyuridine (BrdU, i.p., 100 mg/kg) to each mouse 2 h before euthanasia. Similarly small intestine was checked for IL6 expression. BrdU and IL6 immunohistochemistry (IHC) were performed as per standard protocol against BrdU and IL6. 3,3,-diaminobenzidine (DAB) was used to detect antigen-antibody binding. Counterstaining was done with hematoxylin, and after dehydration, slides were mounted with glycerogelatin.

[4] = tested on: HEK293 cells; assay: Clonogenicity assay with Akt depleted cells; assay type: cell-based, human; settings: 5Gy
Description: HEK 293 cells were transfected with Akt siRNA and control-siRNA (Santa Cruz Biotechnology Inc.) according to the manufacturer's instructions. Semi-quantitative RT-PCR was performed with primers specific for Akt and ACTB in control siRNA and Akt siRNA treated HEK cells for analysing knockdown of Akt […] gene expression.
Exponentially growing HEK cells post siRNA (siRNA-Akt and control siRNA transfections) were treated with 50 μM DMA for 1 h and irradiated with 0, 1, 2, 5 and 8 Gy of radiation dose at RT. Cells were seeded into 60 mm dishes in triplicate, at various densities and cells were stained with crystal violet to count colonies. Same experiment was done with control siRNA-transfected HEK cells. Percentage radioprotection was calculated by following formula % of Protection in radiation treated cells=(Survival fraction in siRNA+DMA treated cells/Survival fraction in only siRNA treated cells/)×100.

[5] = tested on: HEK293 cells; assay: Proliferation kinetics in presence of inhibitors; assay type: cell-based, human
Description: HEK293 cells post 50 μM LY294002 (PI3K/Akt inhibitor) and 10 μM PS1145 (NFκB inhibitor) treatment were treated with 50 μM DMA and 5 Gy radiation. Same experiment was done with control (no inhibitor), only LY294002 and only PS1145 treated HEK cells. Percentage (%) radioprotection of cells at 24, 48 and 72 h was calculated by following formula— % growth of Radiation treated cells=(CNRadiation/CNControl)×100. % growth of DMA+Radiation treated cells=(CNDMA+Radiaion/CNControl)×100. % Radioprotection=% growth of DMA+Radiation treated cells−% growth of Radiation treated cells where CN is the cell number.

[6] = DMA+Radiation vs irradiated mice

COc1ccc(-c2nc3cc(-c4nc5cc(N6CCN(C)CC6)ccc5[nH]4)ccc3[nH]2)cc1OC [DMA, 5-(4-methylpiperazin-1-yl)-2-[2′-(3,4-dimethoxyphenyl)-5′-benzimidazolyl]benzimidazole]
Spleen index ([1]; 200 mg/kg oral before 8Gy, day 10): 0.33±0.02
Spleen index ([1]; DMA treatment only, 200 mg/kg): 0.41±0.05
Endogenous colony forming units ([1]; DMA+Radiation, 10th day post-irradiation): 11.25±1.7
Survival / radioprotection ([2]; 50 mg/kg i.v. 2 h prior to 8Gy TBI): 100%
Survival ([2]; 50 mg/kg i.v., 9Gy TBI): 50%
Radioprotection ([2]; 50 mg/kg s.c. 3 h prior to 8Gy TBI): 20%
30-days survival rate ([2]; 100 mg/kg oral before 8Gy TBI): 54%
Survival ([2]; 125 mg/kg i.p. 2 h before 8Gy): 55%
30-days survival rate ([2]; 150 mg/kg oral before 8Gy TBI): 70%
30-days survival rate ([2]; 200 mg/kg oral before 8Gy TBI (dose finding, FIG. 4C)): 80%
30-day survival rate ([2]; 200 mg/kg oral, 5Gy TBI): 100%
30-day survival rate ([2]; 200 mg/kg oral, 6Gy TBI): 100%
30-day survival rate ([2]; 200 mg/kg oral, 8Gy TBI (FIG. 4D)): 82%
30-day survival rate ([2]; 200 mg/kg oral, 9Gy TBI): 18%
30-day survival rate ([2]; 200 mg/kg oral, 10Gy TBI): 12%
Dose reduction factor (DRF) ([2]; 200 mg/kg oral, ratio of LD50/30, Balb/c mice): 1.28
Effect of DMA by itself on rodents ([2]; DMA only): no effect
Body weight after TBI ([2]; DMA pre-treated mice, after initial 9 days of radiation): considerable weight regain
IL6 level in small intestine (IHC) ([3]; DMA only treated mice): almost equal to control mice
BrdU-positive cells (IHC) [3, 6]: more BrdU-positive cells
IL6 level in small intestine (IHC) [3, 6]: higher level of IL6
% radioprotection (clonogenicity) ([4]; Akt siRNA treated cells): 7.5%
% radioprotection (clonogenicity) ([4]; control siRNA treated cells): 40.6%
% radioprotection by DMA ([5]; LY294002 and PS1145 simultaneously, 24 h): 3%
% radioprotection by DMA ([5]; LY294002 and PS1145 simultaneously, 48 h): 2.2%
% radioprotection by DMA ([5]; LY294002 and PS1145 simultaneously, 72 h): 2%
% radioprotection by DMA ([5]; LY294002 treated cells, 24 h): 15%
% radioprotection by DMA ([5]; LY294002 treated cells, 48 h): 10%
% radioprotection by DMA ([5]; LY294002 treated cells, 72 h): 4%
% radioprotection by DMA ([5]; PS1145 treated cells, 24 h): 4%
% radioprotection by DMA ([5]; PS1145 treated cells, 48 h): 3.5%
% radioprotection by DMA ([5]; PS1145 treated cells, 72 h): 2.4%
% radioprotection by DMA ([5]; no inhibitor, 50 μM DMA, 5 Gy, 24 h): 40%
% radioprotection by DMA ([5]; no inhibitor, 50 μM DMA, 5 Gy, 48 h): 35%
% radioprotection by DMA ([5]; no inhibitor, 50 μM DMA, 5 Gy, 72 h): 16%
